PubChem BioAssay AID2060627 (Molecular Pharmacology Branch, DTP, NCI, 2025)

Tested on: 156681-154-R-J1-PDC complex spheroid viability
Experiment: Anticancer human tumor 156681-154-R-J1-PDC patient-derived melanoma cell line growth inhibition [CLK]
Conditions: for IC50: curve of first compound; for viability, T/C: stronger effect = lower value
How it was run: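 Patient-derived tumor cells grown as complex spheroids with HUVEC endothelial cells and mesenchymal stem cells, treated with drug combinations. Concentrations descend in half-log steps from near clinical Cmax, or from 10 microM if Cmax unknown.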

[1] = second compound 0.0316 µM, first compound 0.0316 µM
[2] = second compound 0.0316 µM, first compound 0.1 µM
[3] = second compound 0.0316 µM, first compound 0.316 µM
[4] = second compound 0.0316 µM, first compound 1 µM
[5] = second compound 0.0316 µM, first compound 3.16 µM
[6] = second compound 0.0316 µM, first compound 10 µM
[7] = second compound 0.1 µM, first compound 0.0316 µM
[8] = second compound 0.1 µM, first compound 0.1 µM
[9] = second compound 0.1 µM, first compound 0.316 µM
[10] = second compound 0.1 µM, first compound 1 µM
[11] = second compound 0.1 µM, first compound 3.16 µM
[12] = second compound 0.1 µM, first compound 10 µM
[13] = second compound 0.316 µM, first compound 0.0316 µM
[14] = second compound 0.316 µM, first compound 0.1 µM
[15] = second compound 0.316 µM, first compound 0.316 µM
[16] = second compound 0.316 µM, first compound 1 µM
[17] = second compound 0.316 µM, first compound 3.16 µM
[18] = second compound 0.316 µM, first compound 10 µM
[19] = second compound 1 µM, first compound 0.0316 µM
[20] = second compound 1 µM, first compound 0.1 µM
[21] = second compound 1 µM, first compound 0.316 µM
[22] = second compound 1 µM, first compound 1 µM
[23] = second compound 1 µM, first compound 3.16 µM
[24] = second compound 1 µM, first compound 10 µM
[25] = second compound 3.16 µM, first compound 0.0316 µM
[26] = second compound 3.16 µM, first compound 0.1 µM
[27] = second compound 3.16 µM, first compound 0.316 µM
[28] = second compound 3.16 µM, first compound 1 µM
[29] = second compound 3.16 µM, first compound 3.16 µM
[30] = second compound 3.16 µM, first compound 10 µM
[31] = second compound 10 µM, first compound 0.0316 µM
[32] = second compound 10 µM, first compound 0.1 µM
[33] = second compound 10 µM, first compound 0.316 µM
[34] = second compound 10 µM, first compound 1 µM
[35] = second compound 10 µM, first compound 3.16 µM
[36] = second compound 10 µM, first compound 10 µM
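Further: spheroids exposed to the agents for seven days.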
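Wherever viability, T/C is given: 100% = DMSO vehicle control viability.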

With `CC1COCCN1c1cc(C2(S(C)(=N)=O)CC2)nc(-c2ccnc3[nH]ccc23)n1` (centres undefined) + CN1CCN(c2cc(C(=O)Nc3cc4cc(-c5cnn(C)c5)ccc4cn3)ccn2)CC1 the IC50 (second compound 0.0316 µM) was 1200 nM, the IC50 (second compound 0.1 µM) was 1110 nM and the IC50 (second compound 0.316 µM) was under 31.6 nM. For the same molecule, the IC50 (second compound 1 µM) was under 31.6 nM, the IC50 (second compound 3.16 µM) was under 31.6 nM and the IC50 (second compound 10 µM) was under 31.6 nM. It also gave a viability, T/C [1] of 94.5%, a viability, T/C [2] of 98.7% and a viability, T/C [3] of 85%. For the same molecule, the viability, T/C [4] was 54%, the viability, T/C [5] was 25.6% and the viability, T/C [6] was 13%. It also gave a viability, T/C [7] of 88.2%, a viability, T/C [8] of 91.1% and a viability, T/C [9] of 78.2%. For the same molecule, the viability, T/C [10] was 53.1%, the viability, T/C [11] was 22.6% and the viability, T/C [12] was 11.9%. It also gave a viability, T/C [13] of 22.2%, a viability, T/C [14] of 20.3% and a viability, T/C [15] of 19.3%. It also gave a viability, T/C [16] of 18.1%, a viability, T/C [17] of 9.6% and a viability, T/C [18] of 5.87%. The viability, T/C [19] was 0.2%, the viability, T/C [20] was 1.01% and the viability, T/C [21] was 0.26%. It also gave a viability, T/C [22] of 1.47%, a viability, T/C [23] of 0.89% and a viability, T/C [24] of 0.75%. The viability, T/C [25] was 0.13%, the viability, T/C [26] was 0.38% and the viability, T/C [27] was 0.22%. For the same molecule, the viability, T/C [28] was 0.27%, the viability, T/C [29] was 2.37% and the viability, T/C [30] was 1.99%. For the same molecule, the viability, T/C [31] was 0.16%, the viability, T/C [32] was 1.25% and the viability, T/C [33] was 0.69%. The viability, T/C [34] was 1.26%, the viability, T/C [35] was 1.36% and the viability, T/C [36] was 1.82%.
`O=C(c1cc(Cc2n[nH]c(=O)c3ccccc23)ccc1F)N1CCN(C(=O)C2CC2)CC1` + CN1CCN(c2cc(C(=O)Nc3cc4cc(-c5cnn(C)c5)ccc4cn3)ccn2)CC1 was tested, and the IC50 (second compound 0.0316 µM) was over 10000 nM, the IC50 (second compound 0.1 µM) was over 10000 nM and the IC50 (second compound 0.316 µM) was under 31.6 nM. It also gave an IC50 (second compound 1 µM) of under 31.6 nM, an IC50 (second compound 3.16 µM) of under 31.6 nM and an IC50 (second compound 10 µM) of under 31.6 nM. The viability, T/C [1] was 104%, the viability, T/C [2] was 110% and the viability, T/C [3] was 89.1%. The viability, T/C [4] was 76.5%, the viability, T/C [5] was 75.3% and the viability, T/C [6] was 64.6%. The viability, T/C [7] was 87.9%, the viability, T/C [8] was 74.5% and the viability, T/C [9] was 70.3%. It also gave a viability, T/C [10] of 74.4%, a viability, T/C [11] of 76.4% and a viability, T/C [12] of 55.7%. For the same molecule, the viability, T/C [13] was 19.1%, the viability, T/C [14] was 19.4% and the viability, T/C [15] was 20.1%. It also gave a viability, T/C [16] of 18%, a viability, T/C [17] of 17.7% and a viability, T/C [18] of 21.2%. It also gave a viability, T/C [19] of 0.14%, a viability, T/C [20] of 1.63% and a viability, T/C [21] of 0.21%. The viability, T/C [22] was 0.5%, the viability, T/C [23] was 0.68% and the viability, T/C [24] was 1.61%. The viability, T/C [25] was 0.08%, the viability, T/C [26] was 1.74% and the viability, T/C [27] was 1.83%. The viability, T/C [28] was 0.06%, the viability, T/C [29] was 0.24% and the viability, T/C [30] was 0.71%. The viability, T/C [31] was 0.1%, the viability, T/C [32] was 2.76% and the viability, T/C [33] was 1.36%. The viability, T/C [34] was 2.17%, the viability, T/C [35] was 1.6% and the viability, T/C [36] was 0.56%.
